Test system: mouse genome
Experiment: Duplex sequencing, high-resolution mutational spectra and pLOGO of liver of NDMA-treated Mgmt−/− mice
Type: in vivo
Procedure: Most experiments utilized C57BL/6J gptΔ transgenic mice ([49],[50]), a gift from T. Nohmi. Some experiments used RaDR^R/R;gpt^g/g;Mgmt^−/− mice, which were created by crossing RaDR^R/R;gpt^g/gmice ([37]) with Mgmt^−/− mice ([51]). NDMA was synthesized and characterized as previously described ([52]) (Fig. S1). […] The first dose (3.5 mg/kg in 10 μl) was administered at 8 days of age, and the second dose (7 mg/kg in 20 μl) was administered at 15 days of age. Vehicle treated mice were administered equivalent volumes of saline. Mice were euthanized at ten weeks post-injection by CO2 inhalation. Both male and female mice were used in all experimental groups (n = 5) in all mouse experiments.
To determine the identity of mutations and the sequence contexts in which they occur, we utilized a form of error-corrected sequencing called duplex sequencing (DS). Previously, we described how DS can be used directly on genomic samples derived from the gptΔ mouse to yield high-resolution mutational spectra in an unbiased (unselected) manner ([49]). Unlike the traditional gptΔ assay, DS evaluates the mutations throughout the entire 6382 bp transgenic region (which contains the gpt gene), without the need for a phenotypic selection. In the present work, 6.4 kb gpt-containing plasmids from gptΔ mouse livers and cell culture were isolated using a Miniprep Kit (Qiagen) following instructions of the manufacturer. Approximately 6 μg of plasmid DNA was diluted in 1× TE buffer-low EDTA, pH 8 (Thermo Scientific), transferred to a microTUBE AFA Fiber Pre-Slit Snap-Cap (Covaris) and sonicated using a Covaris E220 Focused-ultrasonicator. The following program was used to obtain 300–350 bp fragments: peak incident power = 140 W, duty factor = 10%, cycles per burst = 200, treatment time = 80 s, temperature = 4–7°C. DS libraries for gptΔ C57BL/6J mice and MEFs were prepared using the NEBNext Ultra II DNA Library Prep (E7103, NEB) or as described in Chawanthayatham et al. ([49]) and sequenced on a NextSeq500 or NovaSeq 6000 Illumina platform by using a 150 bp paired-end protocol (MIT BioMicro Center). DS libraries for the gptΔ mouse lungs and Mgmt^−/− mice were prepared using an input of 1 μg or 500 ng genomic DNA, respectively, using a TwinStrand Biosciences, Inc. Mouse Mutagenesis Kit according to the manufacturer's protocol. This kit uses probes that hybridize to 20 genomic regions, each 2.4 kb long. The genomic coordinates are provided in Supplementary Table S1. These probes were purposely selected to map in intronic and intergenic regions, to avoid selection bias. The libraries were sequenced on an Illumina NovaSeq 6000 DNA sequencer on an S4 flow cell using a 150 bp paired-end protocol (MIT BioMicro Center).
For each sample, the two fastq files generated by the Illumina sequencer were converted into an unaligned bam file, using Picard Tools. The resulting bam file was processed using UnifiedConsensusMaker.py (version 3.0) as available from the Kennedy Lab at University of Washington (https://github.com/Kennedy-Lab-UW/Duplex-Sequencing). Briefly, this program queries the molecular tags on each read and assembles them into families (strands with the same tag). These are subsequently collapsed into single-strand consensus sequences (SSCS). Then, the software identifies the SSCS corresponding to the complementary strand; these are grouped together as a double-strand consensus sequence (DCS). Unpaired SSCSs were flagged and ignored for the rest of the analysis. Sequence information was accepted only when the information from the two complementary DNA strands was in perfect agreement. The DCSs (as fastq files) were subsequently aligned to the target region (6382 nt in the λ-EG10 genome) using Burrows-Wheeler aligner. Unmapped reads were filtered out. Finally, the properly aligned DCS reads were trimmed (bases 1–8 and 120–137) and collapsed into a pileup file using SamTools. […]

**Q.** `CN(C)N=O` [NDMA, N-nitrosodimethylamine] was tested. Which “pLOGO Frequency (%)” value (A at 1, liver, Mgmt−/− mice) did it give?
**A.** 31.4%

**Q.** And the “pLOGO Value (log-odds binomial probability)” value (shortened to “pLOGO Value”) (A at 1, liver, Mgmt−/− mice)?
**A.** 47.10

**Q.** What about the “pLOGO Frequency (%)” value (A at 2, liver, Mgmt−/− mice) of the same compound?
**A.** 31.0%

**Q.** And the “pLOGO Value” value (A at 2, liver, Mgmt−/− mice)?
**A.** 26.02

**Q.** What about the “pLOGO Frequency (%)” value (A at 3, liver, Mgmt−/− mice) of the same compound?
**A.** 29.4%

**Q.** And the “pLOGO Value” value (A at 3, liver, Mgmt−/− mice)?
**A.** 12.99

**Q.** What about the “pLOGO Frequency (%)” value (A at 5, liver, Mgmt−/− mice) of the same compound?
**A.** 28.3%

**Q.** And the “pLOGO Value” value (A at 5, liver, Mgmt−/− mice)?
**A.** 3.94

**Q.** And the “pLOGO Frequency (%)” value (A at -1, liver, Mgmt−/− mice)?
**A.** 42.5%

**Q.** What about the “pLOGO Value” value (A at -1, liver, Mgmt−/− mice) of the same compound?
**A.** 256.46

**Q.** And the “pLOGO Frequency (%)” value (A at -2, liver, Mgmt−/− mice)?
**A.** 32.8%

**Q.** And the “pLOGO Value” value (A at -2, liver, Mgmt−/− mice)?
**A.** 29.44

**Q.** And the “pLOGO Frequency (%)” value (A at -3, liver, Mgmt−/− mice)?
**A.** 29.2%

**Q.** And the “pLOGO Value” value (A at -3, liver, Mgmt−/− mice)?
**A.** 4.17

**Q.** And the “pLOGO Frequency (%)” value (C at 2, liver, Mgmt−/− mice)?
**A.** 24.5%

**Q.** And the “pLOGO Value” value (C at 2, liver, Mgmt−/− mice)?
**A.** 22.44

**Q.** What about the “pLOGO Frequency (%)” value (G at 4, liver, Mgmt−/− mice) of the same compound?
**A.** 23.1%

**Q.** And the “pLOGO Value” value (G at 4, liver, Mgmt−/− mice)?
**A.** 13.22

**Q.** And the “pLOGO Frequency (%)” value (G at 5, liver, Mgmt−/− mice)?
**A.** 22.8%

**Q.** And the “pLOGO Value” value (G at 5, liver, Mgmt−/− mice)?
**A.** 3.76

**Q.** And the “pLOGO Frequency (%)” value (G at 6, liver, Mgmt−/− mice)?
**A.** 24.8%

**Q.** What about the “pLOGO Value” value (G at 6, liver, Mgmt−/− mice) of the same compound?
**A.** 20.10

**Q.** And the “pLOGO Frequency (%)” value (G at 7, liver, Mgmt−/− mice)?
**A.** 24.2%

**Q.** What about the “pLOGO Value” value (G at 7, liver, Mgmt−/− mice) of the same compound?
**A.** 4.88

**Q.** And the “pLOGO Frequency (%)” value (G at -1, liver, Mgmt−/− mice)?
**A.** 41.6%

**Q.** And the “pLOGO Value” value (G at -1, liver, Mgmt−/− mice)?
**A.** 324

**Q.** And the “pLOGO Frequency (%)” value (G at -2, liver, Mgmt−/− mice)?
**A.** 24.3%

**Q.** And the “pLOGO Value” value (G at -2, liver, Mgmt−/− mice)?
**A.** 23.51

**Q.** What about the “pLOGO Frequency (%)” value (G at -3, liver, Mgmt−/− mice) of the same compound?
**A.** 22.9%

**Q.** And the “pLOGO Value” value (G at -3, liver, Mgmt−/− mice)?
**A.** 4.27

**Q.** And the “pLOGO Frequency (%)” value (G at -4, liver, Mgmt−/− mice)?
**A.** 22.6%

**Q.** And the “pLOGO Value” value (G at -4, liver, Mgmt−/− mice)?
**A.** 5.86

**Q.** What about the “pLOGO Frequency (%)” value (G at -5, liver, Mgmt−/− mice) of the same compound?
**A.** 22.8%

**Q.** What about the “pLOGO Value” value (G at -5, liver, Mgmt−/− mice) of the same compound?
**A.** 4.67

**Q.** And the “pLOGO Frequency (%)” value (G at -6, liver, Mgmt−/− mice)?
**A.** 23.9%

**Q.** And the “pLOGO Value” value (G at -6, liver, Mgmt−/− mice)?
**A.** 4.72

**Q.** And the “AT→GC mutations, proportion of mutations” value (Mgmt−/− mice)?
**A.** 1.7%

**Q.** What about the “pLOGO Frequency (%)” value (T at -2, liver, Mgmt−/− mice) of the same compound?
**A.** 24.7%

**Q.** And the “pLOGO Value” value (T at -2, liver, Mgmt−/− mice)?
**A.** 9.33

**Q.** And the “sequence context of GC→AT mutations” value (liver of Mgmt−/− mice)?
**A.** 5’-PuGN-3’

**Q.** And the dominant single-base substitution (liver of Mgmt−/− mice, 10 weeks post NDMA)?
**A.** GC→AT mutations

**Q.** And the “cosine similarity of mutational patterns in Mgmt−/− and WT mice” value (liver, baseline-corrected, normalized spectra)?
**A.** 0.98

From PMC10041537, “Molecular origins of mutational spectra produced by the environmental carcinogen N-nitrosodimethylamine and SN1 chemotherapeutic agents” (NAR Cancer, 2023)
